Like-named read-outs stand apart in the source and are kept apart here. Marks after values point to notes of the source that are not given here.
Experiments:
p68 RNA helicase = target: T1, p68 RNA helicase (Homo sapiens, UniProt P17844); experiment: RNA-dependent ATPase assay; format: biochemical; settings: total RNA extracted from yeast
T1 construct: made in house
Method: ATPase activity was determined by measuring the released inorganic phosphate during ATP hydrolysis using a direct colorimetric assay (Shin et al., Cancer Res., 67:7572-7578 (2007); Yang et. al., Cell, 127:139-155 (2006)). A typical ATPase assay was carried out in 50 μl reaction volumes, containing 20 mM Tris-HCl pH 7.5, 200 mM NaCl, 1 mM MgCl2, 5 mM DTT, ˜1-2 of appropriate substrate, 4 mM ATP, and 10 μl of helicase. The ATPase reactions were incubated at 37° C. for 30 minutes. After incubation, 1 ml of malachitegreen-molybdenum reagent was added to the reaction mixture, and reactions were further incubated at room temperature for exactly 5 minutes. The absorption (A) at 630 nm was then measured. The concentrations of inorganic phosphate were determined by matching the A630nm in a standard curve of A630nm vs. known phosphate concentrations. […] The percentage of inhibition by defining the ATPase activity of phospho-p68 without RX-5902 as zero percent inhibition was calculated and IC50 of RX-5902 was calculated by non-linear regression analysis using Kaledia Graph software program (Synergy Software, Reading, Pa.).
The effect of RX-5902 on ATPase activity of p68 was investigated. To do this, ATPase activity of recombinant p68 in the presence of RX-5902 and total RNA extracted from yeast were measured.

[1] = Solubility assessment in solvents; format: physicochemical; settings: organic solvent or mixture, thermodynamic from solid
Method: RX-5902 (ca. 2 mg) was weighed in a 1.5 ml clear glass vials. An aliquot of the corresponding solvent or solvent mixture was added at RT and solubility was assessed after 10 min as shown in Table 12. Solutions and suspensions were then placed into a shaking chamber at 50° C. for 10 more minutes. If no dissolution was observed, another aliquot of solvent was added and samples were placed in the shaking chamber at 50° C. for 10 more minutes. This procedure was repeated until dissolution was achieved or a maximum of 400 vol was added.

[2] = system: human non-small cell lung tumor xenografts (A549); experiment: Non-small cell lung cancer xenograft model; format: in vivo, mice; settings: oral
Text: The efficacy of RX-5902 in human cancer xenograft mouse models is examined. Female nude mice (nu/nu, Harlan or CRL: NU(NCr)-Foxn1^nu, Charles River), 9-10 weeks old, with a body weight (BW) range of 15-30 g on day 1 of the study, are fed ad libitum water (reverse osmosis, 1 ppm C1), and NIH 31 Modified and Irradiated Lab Diet® consisting of 18.0% crude protein, 5.0% crude fat, and 5.0% crude fiber. The mice are housed on irradiated Enrich-o'Cobs™ Laboratory Animal Bedding in static microisolators on a 12-hour light cycle at 20-22° C. (68-72° F.) and 40-60% humidity. The study complies with the recommendations of the Guide for, Care and Use of Laboratory Animals with respect to restraint, husbandry, surgical procedures, feed and fluid regulation, and veterinary care.
Various human tumor cell lines (e.g., HCT116, HT29, H460, H69, Caki-1, CaSki, MiaPaca2, BxPC3 and Colo 205 cells [ATCC, Manassas, Va., USA]) are cultured according to ATCC's instruction. […]
The cells are harvested during exponential growth and re-suspended with phosphate buffered saline. Each test animal receives a subcutaneous (s.c.) injection of 5×10^6 tumor cells into the right flank and tumor growth is monitored as the average tumor size approaches the target range of 80-300 mm^3. […] Tumors and body weights are measured regularly until the study is terminated.
Tumors are measured in two dimensions using calipers, and volume is calculated using the formula: […]
Treatment efficacy is determined using data from Day 15. The MTV (n), the median tumor volume for the number of animals, n, on Day 15, is determined for each group. Percent tumor growth inhibition (% TGI) is defined as the difference between the MTV of the designated control group (vehicle administration) and the MTV of the drug-treated group, expressed as a percentage of the MTV of the control group: % TGI=[1−(MTVdrug treated/MTVcontrol)]×100 The data set for TGI analysis includes all animals in a group, except those that die due to treatment-related (TR) or non-treatment-related (NTR) causes. […]
Animals are monitored individually for tumor growth until Day 71. […]

T1 sequence (P17844 whole entry): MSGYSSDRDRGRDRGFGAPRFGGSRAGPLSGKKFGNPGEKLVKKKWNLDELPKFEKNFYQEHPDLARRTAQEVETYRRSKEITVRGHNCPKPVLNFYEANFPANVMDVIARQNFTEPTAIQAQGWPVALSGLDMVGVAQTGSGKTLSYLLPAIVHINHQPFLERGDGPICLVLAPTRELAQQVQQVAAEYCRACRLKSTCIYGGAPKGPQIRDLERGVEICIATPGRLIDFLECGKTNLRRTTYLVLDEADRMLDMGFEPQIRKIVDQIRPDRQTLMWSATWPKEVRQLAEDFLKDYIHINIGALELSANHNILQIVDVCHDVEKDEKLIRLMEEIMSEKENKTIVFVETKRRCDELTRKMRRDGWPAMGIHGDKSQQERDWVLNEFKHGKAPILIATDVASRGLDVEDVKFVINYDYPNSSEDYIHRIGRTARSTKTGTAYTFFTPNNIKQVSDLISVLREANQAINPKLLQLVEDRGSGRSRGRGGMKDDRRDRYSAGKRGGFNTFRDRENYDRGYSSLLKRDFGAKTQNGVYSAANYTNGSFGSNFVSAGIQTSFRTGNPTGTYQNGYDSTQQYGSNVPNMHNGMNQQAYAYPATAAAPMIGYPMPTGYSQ

COc1cc(OC)cc(N2CCN(C(=O)Nc3nc4cc(F)ccc4nc3OC)CC2)c1 [RX-5902, 4-(3,5-dimethoxyphenyl)-N-(7-fluoro-3-methoxyquinoxalin-2-yl)piperazine-1-carboxamide]
effect on RNA-dependent ATPase activity (p68 RNA helicase; 0.2 μM): did not affect
inhibition of RNA-dependent ATPase activity (p68 RNA helicase; 20 μM): less than 30%
solubility at 10 min ([1]; DMSO, 50 °C, read-out: Solubility at 50° C.): ≥ 100 mg/mL
solubility at 10 min ([1]; DMSO, read-out: Solubility at RT): < 100 mg/mL
solubility at 10 min ([1]; MEK, 50 °C, read-out: Solubility at 50° C.): ≥ 12.5 mg/mL
solubility at 10 min ([1]; MEK, read-out: Solubility at RT): < 100 mg/mL
solubility at 10 min ([1]; MIBK, 50 °C, read-out: Solubility at 50° C.): ≥ 6.25 mg/mL
solubility at 10 min ([1]; MIBK, read-out: Solubility at RT): < 100 mg/mL
solubility at 10 min ([1]; THF, 50 °C, read-out: Solubility at 50° C.): ≥ 25 mg/mL
solubility at 10 min ([1]; THF, read-out: Solubility at RT): < 100 mg/mL
solubility at 10 min ([1]; acetone, 50 °C, read-out: Solubility at 50° C.): ≥ 12.5 mg/mL
solubility at 10 min ([1]; acetone, read-out: Solubility at RT): < 100 mg/mL
solubility at 10 min ([1]; acetonitrile, 50 °C, read-out: Solubility at 50° C.): ≥ 12.5 mg/mL
solubility at 10 min ([1]; acetonitrile, read-out: Solubility at RT): < 100 mg/mL
solubility at 10 min ([1]; ethanol, 50 °C, read-out: Solubility at 50° C.): ≥ 2.5 mg/mL
solubility at 10 min ([1]; ethanol, read-out: Solubility at RT): < 100 mg/mL
solubility at 10 min ([1]; ethyl acetate, 50 °C, read-out: Solubility at 50° C.): ≥ 12.5 mg/mL
solubility at 10 min ([1]; ethyl acetate, read-out: Solubility at RT): < 100 mg/mL
solubility at 10 min ([1]; isopropanol-10% water, 50 °C, read-out: Solubility at 50° C.): ≥ 2.5 mg/mL
solubility at 10 min ([1]; isopropanol-10% water, read-out: Solubility at RT): < 100 mg/mL
solubility at 10 min ([1]; methanol, 50 °C, read-out: Solubility at 50° C.): ≥ 2.5 mg/mL
solubility at 10 min ([1]; methanol, read-out: Solubility at RT): < 100 mg/mL
TGI % ([2]; 160 mg/kg QWK): 30%*
TGI % ([2]; 320 mg/kg QWK): 26%*
TGI % ([2]; 600 mg/kg QWK): 26%*

— patent publication US9969698B2, “Quinoxalinyl-piperazinamide methods of use” (REXAHN PHARMACEUTICALS, INC., priority 2015, dated 2018)
